Results as given in ChEMBL document CHEMBL5223080, “Discovery of Pyrrole-imidazole Polyamides as PD-L1 Expression Inhibitors and Their Anticancer Activity via Immune and Nonimmune Pathways” (J Med Chem, 2021).
Values belong to the compound of their own block, whether it stands above or below them. Activity calls are given as the source filed them. The rule behind the calls is not given here.

Tests used:
[1] = tested on: dsDNA; experiment: Binding affinity to human wild-type double stranded DNA assessed as thermal stability of compound-DNA complex by measuring change in melting temperature at stoichiometry ratio 1:0.5 by UV melting assay; assay type: nucleic-acid assay
[2] = tested on: dsDNA; experiment: Binding affinity to human wild-type double stranded DNA assessed as thermal stability of compound-DNA complex by measuring change in melting temperature at stoichiometry ratio 1:1 by UV melting assay; assay type: nucleic-acid assay
[3] = tested on: dsDNA; experiment: Binding affinity to human wild-type double stranded DNA assessed as thermal stability of compound-DNA complex by measuring change in melting temperature at stoichiometry ratio 1:4 by UV melting assay; assay type: nucleic-acid assay
[4] = Binding affinity to human single stranded DNA (unknown origin) by electrophoretic mobility shift assay
[5] = Binding affinity to DNA STAT3 binding site of PD-L1 promoter region (unknown origin) by electrophoretic mobility shift assay
[6] = species on record: Homo sapiens; experiment: Binding affinity to DNA STAT3 binding site of PD-L1 promoter region assessed as effect on binding of STAT3 protein to STAT3 binding site of PD-L1 promoter region by competitive electrophoretic mobility shift assay
[7] = tested on: HCC827; experiment: Inhibition of PD-L1 protein expression in IFNgamma-induced human HCC827 cells measured for 36 hrs by Western blot analysis; assay type: functional, cell-based; settings: dose 1.25-10 µM
[8] = tested on: MDA-MB-231; experiment: Inhibition of PD-L1 protein expression in IFNgamma-induced human MDA-MB-231 cells measured for 36 hrs by Western blot analysis; assay type: functional, cell-based; settings: dose 1.25-10 µM
[9] = tested on: HCC827; experiment: (§1) Induction of T-cell mediated cell killing in human HCC827 cells co-cultured with PMA-activated Jurkat T cells assessed as IL-2 production at 8 uM by ELISA relative to control; assay type: functional
[10] = tested on: MDA-MB-231; experiment: (§2) Induction of T-cell mediated cell killing in human MDA-MB-231 cells co-cultured with PMA-activated Jurkat T cells assessed as IL-2 production at 8 uM by ELISA relative to control; assay type: functional
[11] = tested on: HCC827; experiment: (§3) Induction of T-cell mediated cytotoxicity against human HCC827 cells co-cultured with Jurkat cells assessed as apoptotic cells at 8 uM incubated for 36 hrs by standard CCK-8 assay relative to control; assay type: functional
[12] = tested on: MDA-MB-231; experiment: (§4) Induction of T-cell mediated cytotoxicity against human MDA-MB-231 cells co-cultured with Jurkat cells assessed as apoptotic cells at 8 uM incubated for 36 hrs by standard CCK-8 assay relative to control; assay type: functional
[13] = tested on: Jurkat; experiment: Cytotoxicity against human Jurkat cells at 8 uM incubated for 36 hrs by standard CCK-8 assay; assay type: toxicity, cell-based
[14] = tested on: HCC827; experiment: Cytotoxicity against human HCC827 cells incubated for 36 hrs by standard CCK-8 assay; assay type: functional, cell-based; settings: for IC50: HCC827, 36 h; for Activity: dose 2-32 µM
[15] = tested on: MDA-MB-231; experiment: Cytotoxicity against human MDA-MB-231 cells incubated for 36 hrs by standard CCK-8 assay; assay type: functional, cell-based; settings: for IC50: MDA-MB-231, 36 h; for Activity: dose 2-32 µM
[16] = tested on: MRC5; experiment: Cytotoxicity against human MRC5 cells at 32 uM by standard CCK-8 assay; assay type: toxicity, cell-based; settings: mrc5, 32 µM
[17] = tested on: MDA-MB-231; experiment: Antitumour activity against human MDA-MB-231 cells assessed as measuring interleukin-2 levels by ELISA; assay type: functional
[18] = tested on: HCC827; experiment: Antitumour activity against human HCC827 cells assessed as measuring interleukin-2 levels by ELISA; assay type: functional
[19] = tested on: dsDNA; experiment: Binding affinity to human mutant double stranded DNA assessed as thermal stability of compound-DNA complex by measuring melting temperature change in at stoichiometry ratio 1:0.5 by UV melting assay; assay type: nucleic-acid assay
[20] = tested on: dsDNA; experiment: Binding affinity to human mutant double stranded DNA assessed as thermal stability of compound-DNA complex by measuring change in melting temperature at stoichiometry ratio 1:1 by UV melting assay; assay type: nucleic-acid assay
[21] = tested on: dsDNA; experiment: Binding affinity to human mutant double stranded DNA assessed as thermal stability of compound-DNA complex by measuring melting change in temperature at stoichiometry ratio 1:4 by UV melting assay; assay type: nucleic-acid assay
[22] = tested on: dsDNA; experiment: Binding affinity to human 5'-biotin-double stranded DNA assessed as association rate constant by surface plasmon resonance; assay type: nucleic-acid assay
[23] = target: dsDNA; experiment: Binding affinity to human 5'-biotin-double stranded DNA assessed as dissociation rate constant by surface plasmon resonance; assay type: nucleic-acid assay
[24] = target: dsDNA; experiment: Binding affinity to human 5'-biotin-double stranded DNA assessed as dissociation equilibrium constant by surface plasmon resonance; assay type: nucleic-acid assay
[25] = tested on: DNA; experiment: Binding affinity to wild-type double stranded DNA (unknown origin) by assessed as decrease in compound-DNA complex at >=8 uM by competitive electrophoretic mobility shift assay; assay type: nucleic-acid assay
[26] = Binding affinity to DNA STAT3 binding site of PD-L1 promoter region (unknown origin) assessed as disappearance of band of wild-type double stranded DNA-STAT3 protein complex at > 8 uM by competitive electrophoretic mobility shift assay
[27] = species on record: Homo sapiens; experiment: Binding affinity to 5'-biotin-double stranded DNA (unknown origin) assessed as saturation of the compound-DNA complex at 350 to 500 nM by surface plasmon resonance; settings: dose 350-500 nM
[28] = tested on: HCC827; experiment: Inhibition of PD-L1 mRNA expression in IFNgamma-induced human HCC827 cells measured for 36 hrs by qRT-PCR analysis; assay type: functional, cell-based; settings: dose 1.25-10 µM
[29] = tested on: MDA-MB-231; experiment: Inhibition of PD-L1 mRNA expression in IFNgamma-induced human MDA-MB-231 cells measured for 36 hrs by qRT-PCR analysis; assay type: functional, cell-based; settings: dose 1.25-10 µM
[30] = as §1; assay type: functional
[31] = as §2; assay type: functional
[32] = as §3; assay type: functional
[33] = as §4; assay type: functional
[34] = tested on: HCC827; experiment: Induction of apoptosis in human HCC827 cells co-cultured with human Jurkat T cells at 8 uM relative to control; assay type: functional
[35] = tested on: MDA-MB-231; experiment: Induction of apoptosis in human MDA-MB-231 cells co-cultured with human Jurkat T cells at 8 uM relative to control; assay type: functional
[36] = tested on: HCC827; experiment: Antimigratory activity in human HCC827 cells assessed as inhibition rate at 0.5 to 1 uM measured after 48 hrs by Wound healing assay relative to control; assay type: functional; design: scale not given: the % may be the effect or the level left; settings: dose 0.5-1 µM
[37] = tested on: MDA-MB-231; experiment: Antimigratory activity in human MDA-MB-231 cells assessed as inhibition rate at 0.5 to 1 uM measured after 48 hrs by Wound healing assay relative to control; assay type: functional; design: scale not given: the % may be the effect or the level left; settings: dose 0.5-1 µM
[38] = tested on: HCC827; experiment: Antimigratory activity in human HCC827 cells assessed as inhibition rate at 2 uM measured after 48 hrs by Wound healing assay relative to control; assay type: functional; design: scale not given: the % may be the effect or the level left
[39] = tested on: MDA-MB-231; experiment: Antimigratory activity in human MDA-MB-231 cells assessed as inhibition rate at 2 uM measured after 48 hrs by Wound healing assay relative to control; assay type: functional; design: scale not given: the % may be the effect or the level left
[40] = tested on: HCC827; experiment: Induction of apoptosis in human HCC827 cells assessed as inhibition of pro-caspase 3 at 10 uM by Western blot analysis; assay type: functional, cell-based
[41] = tested on: MDA-MB-231; experiment: Induction of apoptosis in human MDA-MB-231 cells assessed as inhibition of pro-caspase 3 at 10 uM by Western blot analysis; assay type: functional, cell-based
[42] = tested on: DNA; experiment: Binding affinity to wild type double stranded DNA (unknown origin) incubated for 24 hrs by Circular Dichroism assay; assay type: nucleic-acid assay
[43] = tested on: DNA; experiment: Binding affinity to wild type double stranded DNA (unknown origin) at 1:1 compound to DNA ratio incubated for 24 hrs at 340 nm by Circular Dichroism assay; assay type: nucleic-acid assay
[44] = tested on: DNA; experiment: Binding affinity to wild type 28 nucleotide double stranded DNA (unknown origin) in PD-L1 gene promotor region at 1:1 compound to DNA ratio incubated for 24 hrs by Circular Dichroism assay; assay type: nucleic-acid assay
[45] = tested on: HCC827; experiment: Induction of apoptosis in human HCC827 cells assessed as inhibition of Akt phosphorylation at 10 uM by Western blot analysis; assay type: functional, cell-based
[46] = tested on: MDA-MB-231; experiment: Induction of apoptosis in human MDA-MB-231 cells assessed as inhibition of Akt phosphorylation at 10 uM by Western blot analysis; assay type: functional, cell-based

ΔTm [1]: 0.2 °C | ΔTm [2]: 0.4 °C | ΔTm [3]: 0.7 °C | Activity [4]: inactive | Activity [5]: inactive | Activity [6]: inactive
Structure (SMILES): CC(=O)Nc1cc(C(=O)Nc2cc(C(=O)Nc3cc(C(=O)Nc4cn(C)c(C(=O)NCCC(=O)Nc5cn(C)c(C(=O)NCCCC(=O)Nc6cc(C(=O)Nc7cc(C(=O)NCCC(=O)Nc8cn(C)c(C(=O)Nc9cn(C)c(C(=O)Nc%10cc(C(=O)NCCC(=O)NCCCN(C)C)n(C)c%10)n9)n8)n(C)c7)n(C)c6)n5)n4)n(C)c3)n(C)c2)n(C)c1.Cl
inhibition [7]: inactive | inhibition [8]: inactive | Activity [9]: inactive | Activity [10]: inactive | Activity [11]: inactive | Activity [12]: inactive | Activity [13]: Non-Toxic | IC50 [14]: > 200 µM | Activity [14]: inactive | IC50 [15]: > 200 µM | Activity [15]: inactive | Activity [16]: Non-Toxic | Activity [17]: inactive | Activity [18]: inactive

ΔTm [1]: 2.9 °C | ΔTm [2]: 7 °C | ΔTm [3]: 7.3 °C | ΔTm [19]: 0.1 °C | ΔTm [20]: 0.2 °C | ΔTm [21]: 0.4 °C | Ka [22]: 6.47 10^6/M/s | Kd [23]: 32.3 10^-2/s | Kd [24]: 0.0499 µM | Activity [25]: Active | Activity [4]: inactive | Activity [26]: Active | Activity [27]: Active | Activity [42]: Active | Activity [43]: Active | Activity [44]: Active
Structure (SMILES): CC(=O)Nc1cc(C(=O)Nc2cc(C(=O)Nc3cc(C(=O)Nc4cn(C)c(C(=O)Nc5cn(C)c(C(=O)NCCC(=O)Nc6cn(C)c(C(=O)NCCCC(=O)Nc7cc(C(=O)Nc8cc(C(=O)Nc9cc(C(=O)NCCC(=O)Nc%10cc(C(=O)Nc%11cn(C)c(C(=O)Nc%12cc(C(=O)NCCC(=O)NCCCN(C)C)n(C)c%12)n%11)n(C)c%10)n(C)c9)n(C)c8)n(C)c7)n6)n5)n4)n(C)c3)n(C)c2)n(C)c1.Cl
inhibition [28]: Dose-Dependent Effect | inhibition [29]: Dose-Dependent Effect | inhibition [7]: Dose-Dependent Effect | inhibition [8]: Dose-Dependent Effect | Activity [30]: 57% | Activity [31]: 60.35% | Activity [32]: 70% | Activity [33]: 82.11% | Activity [13]: Non-Toxic | IC50 [14]: 11.8 µM | Activity [14]: Dose-Dependent Effect | IC50 [15]: 9.05 µM | Activity [15]: Dose-Dependent Effect | Activity [16]: Non-Toxic | Activity [34]: 269.14% | Activity [35]: 30.84% | Activity [36]: 50% | Activity [37]: 50% | Activity [38]: >70% | Activity [39]: 86.33% | inhibition [40]: Active | inhibition [41]: Active | Activity [17]: 87.89 pg/mL | Activity [18]: 51.17 pg/mL | Activity [45]: Active | Activity [46]: Active
